Measurements as given in ChEMBL document CHEMBL5325427.
Values after ≈ are worked out from the molar mass of the structure shown.

Test system: SARS-CoV-2
Assay: Antiviral activity against SARS CoV-2 DG614G infected human Vero cells overexpressing ACE2 compound preincubated with cells for 1 hr followed by viral infection and measured after 24 hrs by flow cytometry analysis
Format: functional, organism-based
Conditions: Severe acute respiratory syndrome coronavirus 2, DG614G

Work on `COc1ccc2[nH]c3c(c2c1)C[C@]1(OC)CC[C@H]2c4[nH]c5ccccc5c4CCN2[C@@H]1C3` yielded an IC50 of 0.06 µg/mL (≈ 0.14 µM).
